Earlier results, collected in patent publication US20120171125A1, “Methods for Enhancing the Cognitive Function” (UCB PHARMA, S.A., priority 2009, published 2012).

What was measured:
epilepsy = conditions: in vivo
SV2A = SV2A (Homo sapiens, UniProt Q7L0J3)
cognitive function = conditions: animals and humans

Chain of SV2A (Q7L0J3 whole entry, species assumed): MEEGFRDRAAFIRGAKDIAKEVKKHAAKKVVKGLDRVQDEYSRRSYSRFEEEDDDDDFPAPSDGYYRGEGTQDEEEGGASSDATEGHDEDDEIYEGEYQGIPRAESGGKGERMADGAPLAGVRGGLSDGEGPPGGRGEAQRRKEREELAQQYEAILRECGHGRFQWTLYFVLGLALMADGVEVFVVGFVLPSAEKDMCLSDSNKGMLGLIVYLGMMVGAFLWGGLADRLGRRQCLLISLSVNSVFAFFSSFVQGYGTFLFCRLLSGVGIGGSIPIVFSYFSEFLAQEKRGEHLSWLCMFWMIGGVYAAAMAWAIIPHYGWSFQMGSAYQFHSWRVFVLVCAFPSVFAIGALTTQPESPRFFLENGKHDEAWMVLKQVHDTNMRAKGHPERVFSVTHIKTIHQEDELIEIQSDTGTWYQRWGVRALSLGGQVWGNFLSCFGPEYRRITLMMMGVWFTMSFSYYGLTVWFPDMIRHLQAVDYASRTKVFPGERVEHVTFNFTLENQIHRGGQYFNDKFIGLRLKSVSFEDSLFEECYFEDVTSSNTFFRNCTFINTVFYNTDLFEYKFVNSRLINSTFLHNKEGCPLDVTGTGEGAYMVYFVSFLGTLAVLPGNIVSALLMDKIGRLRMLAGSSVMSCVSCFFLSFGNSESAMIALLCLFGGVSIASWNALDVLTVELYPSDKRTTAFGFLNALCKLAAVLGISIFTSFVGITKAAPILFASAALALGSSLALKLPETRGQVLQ

For CC[C@H](C(N)=O)N1CCCC1=O [(R)-(+)-alpha-ethyl-2-oxo-1-pyrrolidine acetamide], the antiepileptic activity (epilepsy) is listed as “completely lacks activity”.

For CC[C@@H](C(N)=O)N1C[C@H](C=C(F)F)CC1=O [Seletracetam, (2S)-2-[(4S)-4-(2,2-difluorovinyl)-2-oxo-pyrrolidinyl]butanamide], the “affinity / binding to SV2A” value (SV2A) is listed as “potent affinity to SV2A” and the antiepileptic activity (epilepsy) is listed as “very potent antiepileptic activities”.

For CCC[C@@H]1CC(=O)N([C@@H](CC)C(N)=O)C1 [brivaracetam, (2S)-2-[(4R)-2-oxo-4-propyl-pyrrolidin-1-yl]butanamide], the “affinity / binding to SV2A” value (SV2A) is given as “potent affinity to SV2A” and the antiepileptic activity (epilepsy) is given as “very potent antiepileptic activities”.

In the case of CC[C@@H](C(N)=O)N1CCCC1=O [levetiracetam, (S)-(−)-alpha-ethyl-2-oxo-1-pyrrolidine acetamide], the “impact on the cognitive function” value (cognitive function) is listed as “no impact on the cognitive function”.

In the case of NC(=O)CN1CCCC1=O [piracetam], the “affinity / binding to SV2A” value (SV2A) is given as “does not bind to SV2A”.
